From patent US11000033B2, “Ketone or oxime compound, and herbicide” (NISSAN CHEMICAL CORPORATION, priority 2014, dated 2021)

What was measured:
Assay type in all cases: in vivo
wheat = experiment: Test Example 5: effect on crop by foliage application, plastic box (symbol e); conditions: 320 g/ha, 3 weeks after application
In short: (§1)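 Soil: sterilized diluvial. Container: plastic box, 21 × 13 cm, 7 cm deep. Sowing: spot-like, ~1.5 cm cover. Growth: greenhouse, 25° C. to 30° C.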

[1] = tested on: Echinochloa crus-galli var. crus-galli; experiment: Test Example 4: herbicidal effect by soil treatment (symbol H); conditions: application herbicide amount 320 g/ha
In short: (§2)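 Seeds were sown in sterilized diluvial soil, covered with about 1.5 cm of soil, and the soil surface was sprayed with a water-diluted emulsion of the compound at a predetermined rate. Plants grew in a greenhouse at 25° C. to 30° C.; effects were scored visually 3 weeks after application.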

Setaria viridis = experiment: Test Example 5: herbicidal effect by foliage application, plastic box (symbol G); conditions: 320 g/ha, 3 weeks after application
In short: (§3)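 Visual herbicidal score, taken three weeks post-application, of seedlings sprayed on the foliage with water-diluted emulsion at a predetermined amount; plants were 14 days old, greenhouse-raised at 25° C. to 30° C.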

Lolium multiflorum Lam. = experiment: Test Example 4: herbicidal effect by soil treatment (symbol K); conditions: application herbicide amount 320 g/ha
In short: as §2

transplanted rice plant = experiment: Test Example 1: effect on crop, application before weed generation in submerged conditions (symbol a); conditions: application herbicide amount 320 g/ha
In short: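 Alluvial soil pots flooded to 4 cm water, sown with Echinochloa oryzacola, Scirpus juncoides and Monochoria vaginalis, then transplanted with 2.5 leaf stage rice seedlings; pre-emergence application. Greenhouse 25° C. to 30° C.; scored 0–5 by herbicidal ratio 3 weeks after application.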

soybean = experiment: Test Example 5: effect on crop by foliage application, plastic box (symbol d); conditions: 320 g/ha, 3 weeks after application
In short: as §1

beet = experiment: Test Example 4: effect on crop by soil treatment (symbol f); conditions: application herbicide amount 320 g/ha
In short: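 Steps: fill box with sterilized diluvial soil; sow seed spot-like; cover with ~1.5 cm soil; grow in greenhouse (25° C. to 30° C.).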

Amaranthus retroflexus = experiment: Test Example 4: herbicidal effect by soil treatment (symbol N); conditions: application herbicide amount 320 g/ha
In short: as §2

Leptochloa chinensis = experiment: Test Example 3: herbicidal effect by foliage application, Wagner pot (symbol D); conditions: application herbicide amount 320 g/ha
In short: (§4)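 Herbicidal activity was rated three weeks after a foliar spray of diluted emulsion concentrate, applied at a predetermined dose to plants grown for 14 days from seed in waterlogged alluvial soil within a 25–30 °C greenhouse.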

Scirpus juncoides = experiment: Test Example 1: herbicidal activity, application before weed generation in submerged conditions (symbol B); conditions: application herbicide amount 320 g/ha
In short: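 Ratings (5: ≥90%, near complete withering; 4: 70–<90%; 3: 40–<70%; 2: 20–<40%; 1: 5–<20%; 0: ≤5%) were assigned 3 weeks after the diluted emulsion was applied to the water surface of freshly sown, submerged pots.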

Galium spurium = experiment: Test Example 5: herbicidal effect by foliage application, plastic box (symbol Q); conditions: 320 g/ha, 3 weeks after application
In short: as §3

Cyperus difformis = experiment: Test Example 3: herbicidal effect by foliage application, Wagner pot (symbol E); conditions: application herbicide amount 320 g/ha
In short: as §4

corn = experiment: Test Example 4: effect on crop by soil treatment (symbol c); conditions: application herbicide amount 320 g/ha
In short: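 Greenhouse culture at 25° C. to 30° C. followed sowing of seed in spots on sterilized diluvial soil with a soil cover close to 1.5 cm thick.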

Veronica persica = experiment: Test Example 5: herbicidal effect by foliage application, plastic box (symbol R); conditions: 320 g/ha, 3 weeks after application
In short: as §3

CON=C(C)CC1CC(OC(=O)C2(C)CC2(Cl)Cl)=C(c2c(C)cc(C)cc2C)C1=O (stereo not drawn) [1-036]
e: wheat, effect on crop grade (wheat): 5 (Herbicidal ratio of 90% or more (almost completely withered))
H (Echinochloa crus-galli var. crus-galli) herbicidal effect grade [1]: 5 (Herbicidal ratio of 90% or more (almost completely withered))
G: Setaria viridis, herbicidal effect grade (Setaria viridis): 5 (Herbicidal ratio of 90% or more (almost completely withered))
K (Lolium multiflorum Lam.) herbicidal effect grade (Lolium multiflorum Lam.): 5 (Herbicidal ratio of 90% or more (almost completely withered))
Effect grade on crop, a: transplanted rice plant (transplanted rice plant): 5 (Herbicidal ratio of 90% or more (almost completely withered))
d: soybean, effect on crop grade (soybean): 4 (Herbicidal ratio of 70% or higher and lower than 90%)
f (beet) effect on crop grade (beet): 3 (Herbicidal ratio of 40% or higher and lower than 70%)
N (Amaranthus retroflexus) herbicidal effect grade (Amaranthus retroflexus): 5 (Herbicidal ratio of 90% or more (almost completely withered))
herbicidal effect on D (Leptochloa chinensis), grade 0-5 (Leptochloa chinensis): 5 (Herbicidal ratio of 90% or more (almost completely withered))
Herbicidal effect grade, B: Scirpus juncoides (Scirpus juncoides): 4 (Herbicidal ratio of 70% or higher and lower than 90%)
Q: Galium spurium, herbicidal effect grade (Galium spurium): 0 (Herbicidal ratio of 5% or lower (almost no effect))
herbicidal effect on E, grade 0-5 (Cyperus difformis): 5 (Herbicidal ratio of 90% or more (almost completely withered))
c (corn) effect on crop grade (corn): 3 (Herbicidal ratio of 40% or higher and lower than 70%)

CON=CC(C)(C)C1CC(O)=C(c2c(C)cc(C)cc2C)C1=O (stereo not drawn) [1-030]
R: Veronica persica, herbicidal effect grade (Veronica persica): 0 (Herbicidal ratio of 5% or lower (almost no effect))
e: wheat, effect on crop grade (wheat): 0 (Herbicidal ratio of 5% or lower (almost no effect))
H (Echinochloa crus-galli var. crus-galli) herbicidal effect grade [1]: 2 (Herbicidal ratio of 20% or higher and lower than 40%)
G: Setaria viridis, herbicidal effect grade (Setaria viridis): 5 (Herbicidal ratio of 90% or more (almost completely withered))
K (Lolium multiflorum Lam.) herbicidal effect grade (Lolium multiflorum Lam.): 5 (Herbicidal ratio of 90% or more (almost completely withered))
Effect grade on crop, a: transplanted rice plant (transplanted rice plant): 1 (Herbicidal ratio of 5% or higher and lower than 20%)
d: soybean, effect on crop grade (soybean): 0 (Herbicidal ratio of 5% or lower (almost no effect))
N (Amaranthus retroflexus) herbicidal effect grade (Amaranthus retroflexus): 0 (Herbicidal ratio of 5% or lower (almost no effect))
herbicidal effect on D (Leptochloa chinensis), grade 0-5 (Leptochloa chinensis): 5 (Herbicidal ratio of 90% or more (almost completely withered))
Herbicidal effect grade, B: Scirpus juncoides (Scirpus juncoides): 0 (Herbicidal ratio of 5% or lower (almost no effect))
Q: Galium spurium, herbicidal effect grade (Galium spurium): 0 (Herbicidal ratio of 5% or lower (almost no effect))
herbicidal effect on E, grade 0-5 (Cyperus difformis): 3 (Herbicidal ratio of 40% or higher and lower than 70%)
c (corn) effect on crop grade (corn): 0 (Herbicidal ratio of 5% or lower (almost no effect))

CC(CC1CC(O)=C(c2c(C)cc(C)cc2C)C1=O)=NOCC1CC1 (stereo not drawn) [1-024]
e: wheat, effect on crop grade (wheat): 5 (Herbicidal ratio of 90% or more (almost completely withered))
H (Echinochloa crus-galli var. crus-galli) herbicidal effect grade [1]: 5 (Herbicidal ratio of 90% or more (almost completely withered))
G: Setaria viridis, herbicidal effect grade (Setaria viridis): 5 (Herbicidal ratio of 90% or more (almost completely withered))
K (Lolium multiflorum Lam.) herbicidal effect grade (Lolium multiflorum Lam.): 5 (Herbicidal ratio of 90% or more (almost completely withered))
Effect grade on crop, a: transplanted rice plant (transplanted rice plant): 5 (Herbicidal ratio of 90% or more (almost completely withered))
d: soybean, effect on crop grade (soybean): 2 (Herbicidal ratio of 20% or higher and lower than 40%)
f (beet) effect on crop grade (beet): 0 (Herbicidal ratio of 5% or lower (almost no effect))
N (Amaranthus retroflexus) herbicidal effect grade (Amaranthus retroflexus): 4 (Herbicidal ratio of 70% or higher and lower than 90%)
herbicidal effect on D (Leptochloa chinensis), grade 0-5 (Leptochloa chinensis): 5 (Herbicidal ratio of 90% or more (almost completely withered))
Herbicidal effect grade, B: Scirpus juncoides (Scirpus juncoides): 5 (Herbicidal ratio of 90% or more (almost completely withered))
Q: Galium spurium, herbicidal effect grade (Galium spurium): 3 (Herbicidal ratio of 40% or higher and lower than 70%)
herbicidal effect on E, grade 0-5 (Cyperus difformis): 5 (Herbicidal ratio of 90% or more (almost completely withered))
c (corn) effect on crop grade (corn): 1 (Herbicidal ratio of 5% or higher and lower than 20%)

CON=C(C)CC1CC(OC(=O)COc2ccc(Cl)cc2)=C(c2c(C)cc(C)cc2C)C1=O (stereo not drawn) [1-044]
R: Veronica persica, herbicidal effect grade (Veronica persica): 0 (Herbicidal ratio of 5% or lower (almost no effect))
e: wheat, effect on crop grade (wheat): 5 (Herbicidal ratio of 90% or more (almost completely withered))
H (Echinochloa crus-galli var. crus-galli) herbicidal effect grade [1]: 5 (Herbicidal ratio of 90% or more (almost completely withered))
G: Setaria viridis, herbicidal effect grade (Setaria viridis): 5 (Herbicidal ratio of 90% or more (almost completely withered))
K (Lolium multiflorum Lam.) herbicidal effect grade (Lolium multiflorum Lam.): 5 (Herbicidal ratio of 90% or more (almost completely withered))
Effect grade on crop, a: transplanted rice plant (transplanted rice plant): 5 (Herbicidal ratio of 90% or more (almost completely withered))
d: soybean, effect on crop grade (soybean): 4 (Herbicidal ratio of 70% or higher and lower than 90%)
N (Amaranthus retroflexus) herbicidal effect grade (Amaranthus retroflexus): 4 (Herbicidal ratio of 70% or higher and lower than 90%)
herbicidal effect on D (Leptochloa chinensis), grade 0-5 (Leptochloa chinensis): 5 (Herbicidal ratio of 90% or more (almost completely withered))
Herbicidal effect grade, B: Scirpus juncoides (Scirpus juncoides): 5 (Herbicidal ratio of 90% or more (almost completely withered))
Q: Galium spurium, herbicidal effect grade (Galium spurium): 0 (Herbicidal ratio of 5% or lower (almost no effect))
herbicidal effect on E, grade 0-5 (Cyperus difformis): 5 (Herbicidal ratio of 90% or more (almost completely withered))
c (corn) effect on crop grade (corn): 4 (Herbicidal ratio of 70% or higher and lower than 90%)

CON=C(C)CC1CC(OC(=O)COc2ccc(Cl)cc2Cl)=C(c2c(C)cc(C)cc2C)C1=O (stereo not drawn) [1-075]
R: Veronica persica, herbicidal effect (criteria 0-5) (Veronica persica): 0 (Herbicidal ratio of 5% or lower (almost no effect))
e: wheat, effect on crop (criteria 0-5) (wheat): 5 (Herbicidal ratio of 90% or more (almost completely withered))
H (Echinochloa crus-galli var. crus-galli) herbicidal effect grade [1]: 5 (Herbicidal ratio of 90% or more (almost completely withered))
G: Setaria viridis, herbicidal effect (criteria 0-5) (Setaria viridis): 5 (Herbicidal ratio of 90% or more (almost completely withered))
K (Lolium multiflorum Lam.) herbicidal effect grade (Lolium multiflorum Lam.): 5 (Herbicidal ratio of 90% or more (almost completely withered))
Effect grade on crop, a: transplanted rice plant (transplanted rice plant): 5 (Herbicidal ratio of 90% or more (almost completely withered))
d: soybean, effect on crop (criteria 0-5) (soybean): 1 (Herbicidal ratio of 5% or higher and lower than 20%)
N (Amaranthus retroflexus) herbicidal effect grade (Amaranthus retroflexus): 5 (Herbicidal ratio of 90% or more (almost completely withered))
herbicidal effect on D (Leptochloa chinensis), grade 0-5 (Leptochloa chinensis): 5 (Herbicidal ratio of 90% or more (almost completely withered))
Herbicidal effect grade, B: Scirpus juncoides (Scirpus juncoides): 4 (Herbicidal ratio of 70% or higher and lower than 90%)
Q: Galium spurium, herbicidal effect (criteria 0-5) (Galium spurium): 0 (Herbicidal ratio of 5% or lower (almost no effect))
herbicidal effect on E, grade 0-5 (Cyperus difformis): 5 (Herbicidal ratio of 90% or more (almost completely withered))
c (corn) effect on crop grade (corn): 5 (Herbicidal ratio of 90% or more (almost completely withered))

COCC(CC1CC(O)=C(c2c(C)cc(C)cc2C)C1=O)=NOC (stereo not drawn) [1-040]
R: Veronica persica, herbicidal effect grade (Veronica persica): 0 (Herbicidal ratio of 5% or lower (almost no effect))
e: wheat, effect on crop grade (wheat): 0 (Herbicidal ratio of 5% or lower (almost no effect))
H (Echinochloa crus-galli var. crus-galli) herbicidal effect grade [1]: 5 (Herbicidal ratio of 90% or more (almost completely withered))
G: Setaria viridis, herbicidal effect grade (Setaria viridis): 4 (Herbicidal ratio of 70% or higher and lower than 90%)
K (Lolium multiflorum Lam.) herbicidal effect grade (Lolium multiflorum Lam.): 4 (Herbicidal ratio of 70% or higher and lower than 90%)
Effect grade on crop, a: transplanted rice plant (transplanted rice plant): 4 (Herbicidal ratio of 70% or higher and lower than 90%)
d: soybean, effect on crop grade (soybean): 0 (Herbicidal ratio of 5% or lower (almost no effect))
f (beet) effect on crop grade (beet): 0 (Herbicidal ratio of 5% or lower (almost no effect))
N (Amaranthus retroflexus) herbicidal effect grade (Amaranthus retroflexus): 0 (Herbicidal ratio of 5% or lower (almost no effect))
herbicidal effect on D (Leptochloa chinensis), grade 0-5 (Leptochloa chinensis): 4 (Herbicidal ratio of 70% or higher and lower than 90%)
Herbicidal effect grade, B: Scirpus juncoides (Scirpus juncoides): 2 (Herbicidal ratio of 20% or higher and lower than 40%)
herbicidal effect on E, grade 0-5 (Cyperus difformis): 4 (Herbicidal ratio of 70% or higher and lower than 90%)
c (corn) effect on crop grade (corn): 0 (Herbicidal ratio of 5% or lower (almost no effect))
